Source: ChEMBL document CHEMBL1131189, “Conformationally restricted analogues of 1N,12N-bisethylspermine: synthesis and growth inhibitory effects on human tumor cell lines” (1998)
One block for each compound: values may come before it.

How the values were obtained:
DU-145 [1] = assay: Growth inhibitory activity was measured for human DU145 tumor cell line.; assay type: functional; conditions: read-out: ID50 (the source's name)
PC-3 = assay: Growth inhibitory activity was measured for human PC-3 tumor cell line.; assay type: functional; conditions: read-out: ID50 (the source's name)
HT-29 = assay: Growth inhibitory activity was measured for human HT-29 tumor cell line.; assay type: functional; conditions: read-out: ID50 (the source's name)
U-251 = assay: Growth inhibitory activity was measured for human U251MG NCI tumor cell line.; assay type: functional; conditions: read-out: ID50 (the source's name)
DU-145 [2] = assay: The concentration levels of spermidine (SD) evaluated in DU145 cells treated with the compound concentration of 10 uM on fifth day of treatment.; assay type: functional, cell-based; conditions: Homo sapiens
DU-145 [3] = assay: The concentration levels of putrescine (PU) evaluated in DU145 cells treated with the compound concentration of 10 uM on third day of treatment.; assay type: functional, cell-based; conditions: Homo sapiens
A549 = assay: Growth inhibitory activity was measured for human A549 tumor cell line.; assay type: functional; conditions: read-out: ID50 (the source's name)
DU-145 [4] = assay: The concentration levels of spermine (SP) evaluated in DU145 cells treated with the compound concentration of 10 uM on fifth day of treatment.; assay type: functional, cell-based; conditions: Homo sapiens
DU-145 [5] = assay: The concentration levels of putrescine (PU) evaluated in DU145 cells treated with the compound concentration of 10 uM on fifth day of treatment.; assay type: functional, cell-based; conditions: Homo sapiens
DU-145 [6] = assay: The concentration levels of analogue evaluated in DU145 cells treated with the compound concentration of 10 uM on fifth day of treatment.; assay type: functional, cell-based; conditions: Homo sapiens
MCF7 = assay: Growth inhibitory activity was measured for human MCF-7 tumor cell line.; assay type: functional; conditions: read-out: ID50 (the source's name)
DU-145 [7] = assay: The concentration levels of spermine (SP), evaluated in DU145 cells treated with the compound concentration of 10 uM on third day of treatment.; assay type: functional, cell-based; conditions: Homo sapiens
DU-145 [8] = assay: The concentration levels of analogue evaluated in DU145 cells treated with the compound concentration of 10 uM on third day of treatment.; assay type: functional, cell-based; conditions: Homo sapiens
DU-145 [9] = assay: The concentration levels of spermidine (SD), evaluated in DU145 cells treated with the compound concentration of 10 uM on third day of treatment.; assay type: functional, cell-based; conditions: Homo sapiens

Compound: CCNCCCNCC1CCC1CNCCCNCC (stereo in doubt; 19)
IC50 (DU-145 [1]): 50 nM
IC50 (PC-3): > 31200 nM

Compound: CCNCCCNCc1ccccc1CNCCCNCC
IC50 (HT-29; Homo sapiens, HT-29): > 31200 nM
IC50 (U-251): > 31200 nM
Concentration (nM (10e6*cells)-1) (DU-145 [2]): 1.84
Concentration (nM (10e6*cells)-1) (DU-145 [3]): 0.12
IC50 (A549; Homo sapiens, A549): > 31200 nM
Concentration (nM (10e6*cells)-1) (DU-145 [4]): 2.13
Concentration (nM (10e6*cells)-1) (DU-145 [5]): 0.06
Concentration (nM (10e6*cells)-1) (DU-145 [6]): 1.25
IC50 (MCF7): > 31200 nM
Concentration (nM (10e6*cells)-1) (DU-145 [7]): 2.7
Concentration (nM (10e6*cells)-1) (DU-145 [8]): 0.82
IC50 (PC-3; Homo sapiens, PC-3): > 31200 nM
Concentration (nM (10e6*cells)-1) (DU-145 [9]): 1.5

Compound: CCNCCCNCC1CCC1CNCCCNCC (stereo in doubt; 15)
IC50 (HT-29; Homo sapiens, HT-29): 1600 nM
IC50 (U-251): 120 nM
IC50 (DU-145 [1]): 10 nM
IC50 (MCF7): > 31200 nM

The remaining lines, values ahead:

IC50 (DU-145 [1]; Homo sapiens, DU-145): 140 nM
Compound: CCNCCCNC/C=C/CNCCCNCC

IC50 (HT-29): 1400 nM
IC50 (DU-145 [1]): 60 nM
IC50 (A549): 250 nM
IC50 (PC-3): 12400 nM
Compound: CCNCCCNCC1CC1CNCCCNCC (stereo in doubt; 5)
